Test results reported in PubChem BioAssay AID220 (DTP/NCI, 2004).
Records with an inconclusive call do not appear.

Test system: CD8F1 mice, subcutaneous mammary adenocarcinoma, T/C%
Assay: NCI In Vivo Anticancer Drug Screen. Data for tumor model Mammary Adenocarcinoma CD8F1 (subcutaneous) in CD8F1
Details: higher = larger tumour
Procedure, shortened: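 Transplantable tumors were established in mice, animals were dosed with compound or vehicle, and survival or tumor size was then measured in both groups. The treated result was divided by the control result.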

[1] = endpoint: median tumor weight (est.), dose: 12.5 mg/kg/injection, schedule: Q07DX005 (ip), vehicle: saline with Tween-80
[2] = endpoint: median tumor weight (est.), dose: 25.0 mg/kg/injection, schedule: Q07DX005 (ip), vehicle: saline with Tween-80
[3] = endpoint: median tumor weight (est.), dose: 50.0 mg/kg/injection, schedule: Q07DX005 (ip), vehicle: saline with Tween-80
[4] = endpoint: median tumor weight (est.), dose: 100.0 mg/kg/injection, schedule: Q07DX005 (ip), vehicle: saline with Tween-80
[5] = endpoint: median tumor weight (est.), dose: 200.0 mg/kg/injection, schedule: Q07DX005 (ip), vehicle: saline with Tween-80
[6] = endpoint: median tumor weight (est.), dose: 12.5 mg/kg/injection, schedule: Q07DX005 (ip), vehicle: Klucel (hydroxypropylcellulose) (HPC)
[7] = endpoint: median tumor weight (est.), dose: 50.0 mg/kg/injection, schedule: Q07DX005 (ip), vehicle: Klucel (hydroxypropylcellulose) (HPC)
[8] = endpoint: median tumor weight (est.), dose: 400.0 mg/kg/injection, schedule: Q07DX005 (ip), vehicle: saline with Tween-80

Structure (SMILES): CNC=O
- T/C (endpoint: median tumor weight change, dose: 25.0 mg/kg/injection, schedule: Q01DX001 (ip), vehicle: saline): 54 % of control
- T/C (endpoint: median tumor weight change, dose: 50.0 mg/kg/injection, schedule: Q01DX001 (ip), vehicle: saline): 75 % of control
- T/C (endpoint: median tumor weight change, dose: 100.0 mg/kg/injection, schedule: Q01DX001 (ip), vehicle: saline): 59 % of control
- T/C (endpoint: median tumor weight change, dose: 200.0 mg/kg/injection, schedule: Q01DX001 (ip), vehicle: saline sonified): 48 % of control
- T/C (endpoint: median tumor weight change, dose: 200.0 mg/kg/injection, schedule: Q01DX001 (ip), vehicle: saline): 72 % of control
- T/C (endpoint: median tumor weight change, dose: 800.0 mg/kg/injection, schedule: Q01DX001 (ip), vehicle: saline): 154 % of control
- T/C (endpoint: median tumor weight change, dose: 1600.0 mg/kg/injection, schedule: Q01DX001 (ip), vehicle: saline): 71 % of control
- T/C (endpoint: median tumor weight change, dose: 3200.0 mg/kg/injection, schedule: Q01DX001 (ip), vehicle: saline): 108 % of control

Structure (SMILES): COc1cccc2c1C(=O)c1c(O)c3c(c(O)c1C2=O)C[C@@](O)(/C(C)=N/NC(=O)c1cccc([N+](=O)[O-])c1)C[C@@H]3OC1CC(N)C(O)C(C)O1 (some centres not stated)
- T/C (endpoint: mean tumor weight, dose: 4.0 mg/kg/injection, schedule: Q07DX004 (ip), vehicle: saline): 98 % of control
- T/C (endpoint: mean tumor weight, dose: 8.0 mg/kg/injection, schedule: Q07DX004 (ip), vehicle: saline): 51 % of control
- T/C (endpoint: mean tumor weight, dose: 16.0 mg/kg/injection, schedule: Q07DX004 (ip), vehicle: saline): 94 % of control
- T/C (endpoint: mean tumor weight, dose: 32.0 mg/kg/injection, schedule: Q07DX004 (ip), vehicle: saline): 1 % of control
- T/C (endpoint: median tumor weight (est.), dose: 4.0 mg/kg/injection, schedule: Q07DX005 (ip), vehicle: saline): 93 % of control
- T/C (endpoint: median tumor weight (est.), dose: 8.0 mg/kg/injection, schedule: Q07DX005 (ip), vehicle: saline): 41 % of control
- T/C (endpoint: median tumor weight (est.), dose: 16.0 mg/kg/injection, schedule: Q07DX005 (ip), vehicle: saline): 5 % of control

Structure (SMILES): C1CN2CN3CCN(CN1C3)C2
- T/C (endpoint: mean tumor weight, dose: 12.5 mg/kg/injection, schedule: Q07DX006 (ip), vehicle: saline): 85 % of control
- T/C (endpoint: mean tumor weight, dose: 25.0 mg/kg/injection, schedule: Q07DX006 (ip), vehicle: saline): 104 % of control
- T/C (endpoint: mean tumor weight, dose: 50.0 mg/kg/injection, schedule: Q07DX006 (ip), vehicle: saline): 79 % of control
- T/C (endpoint: mean tumor weight, dose: 100.0 mg/kg/injection, schedule: Q07DX006 (ip), vehicle: saline): 26 % of control
- T/C (endpoint: median tumor weight (est.), dose: 6.25 mg/kg/injection, schedule: Q07DX005 (ip), vehicle: saline): 75 % of control
- T/C (endpoint: median tumor weight (est.), dose: 12.5 mg/kg/injection, schedule: Q07DX005 (ip), vehicle: saline): 107 % of control
- T/C (endpoint: median tumor weight (est.), dose: 25.0 mg/kg/injection, schedule: Q07DX005 (ip), vehicle: saline): 93 % of control
- T/C (endpoint: median tumor weight (est.), dose: 50.0 mg/kg/injection, schedule: Q07DX005 (ip), vehicle: saline): 82 % of control
- T/C (endpoint: median tumor weight (est.), dose: 100.0 mg/kg/injection, schedule: Q07DX005 (ip), vehicle: saline): 107 % of control
- T/C (endpoint: median tumor weight (est.), dose: 200.0 mg/kg/injection, schedule: Q07DX005 (ip), vehicle: saline): 67 % of control

Structure (SMILES): BrC1c2cccc3cccc(c23)C1Br (configuration not stated)
- T/C [1]: 113 % of control
- T/C [2]: 88 % of control
- T/C [3]: 111 % of control
- T/C [4]: 117 % of control
- T/C [5]: 85 % of control

Structure (SMILES): O=CN(SSN(C=O)C1CCCCC1)C1CCCCC1
- T/C [2]: 101 % of control
- T/C [3]: 123 % of control
- T/C [5]: 100 % of control

Structure (SMILES): CC1=C(C)C(=O)O[C@@H]([C@](C)(O)[C@]2(O)CC[C@@]3(O)[C@@H]4C[C@H]5O[C@]56[C@@H](O)C=CC(=O)[C@]6(C)[C@H]4CC[C@]23C)C1
- T/C (endpoint: median tumor weight change, dose: 18.75 mg/kg/injection, schedule: Q01DX001 (ip), vehicle: saline): 104 % of control
- T/C (endpoint: median tumor weight change, dose: 37.5 mg/kg/injection, schedule: Q01DX001 (ip), vehicle: saline): 63 % of control
- T/C (endpoint: median tumor weight change, dose: 75.0 mg/kg/injection, schedule: Q01DX001 (ip), vehicle: saline): 61 % of control

Structure (SMILES): Nc1nc(/C=C(/O)c2ccccc2)c2ncn(C3OC(CO)C(O)C3O)c2n1 (configuration not stated)
- T/C (endpoint: median tumor weight change, dose: 50.0 mg/kg/injection, schedule: Q01DX001 (ip), vehicle: distilled water + Tween-80): 91 % of control

Structure (SMILES): O=c1[nH]c(=O)n([C@H]2CCCO2)cc1F
- T/C [6]: 100 % of control
- T/C (endpoint: median tumor weight (est.), dose: 20.0 mg/kg/injection, schedule: Q07DX005 (ip), vehicle: Klucel (hydroxypropylcellulose) (HPC)): 82 % of control
- T/C (endpoint: median tumor weight (est.), dose: 40.0 mg/kg/injection, schedule: Q07DX005 (ip), vehicle: Klucel (hydroxypropylcellulose) (HPC)): 97 % of control
- T/C [7]: 102 % of control
- T/C (endpoint: median tumor weight (est.), dose: 100.0 mg/kg/injection, schedule: Q07DX005 (ip), vehicle: Klucel (hydroxypropylcellulose) (HPC)): 84 % of control
- T/C (endpoint: median tumor weight (est.), dose: 160.0 mg/kg/injection, schedule: Q07DX005 (ip), vehicle: Klucel (hydroxypropylcellulose) (HPC)): 91 % of control
- T/C (endpoint: median tumor weight (est.), dose: 200.0 mg/kg/injection, schedule: Q07DX005 (ip), vehicle: Klucel (hydroxypropylcellulose) (HPC)): 95 % of control
- T/C (endpoint: median tumor weight (est.), dose: 320.0 mg/kg/injection, schedule: Q07DX005 (ip), vehicle: Klucel (hydroxypropylcellulose) (HPC)): 10 % of control
- T/C (endpoint: median tumor weight (est.), dose: 400.0 mg/kg/injection, schedule: Q07DX005 (ip), vehicle: Klucel (hydroxypropylcellulose) (HPC)): 4 % of control

Structure (SMILES): NC(=S)N/N=C/c1ccc(OC(=O)COc2ccc(Cl)cc2)cn1
- T/C (endpoint: mean tumor weight, dose: 25.0 mg/kg/injection, schedule: Q07DX008 (ip), vehicle: saline): 100 % of control
- T/C (endpoint: mean tumor weight, dose: 50.0 mg/kg/injection, schedule: Q07DX008 (ip), vehicle: saline): 50 % of control
- T/C (endpoint: mean tumor weight, dose: 100.0 mg/kg/injection, schedule: Q07DX008 (ip), vehicle: saline): 64 % of control
- T/C (endpoint: mean tumor weight, dose: 200.0 mg/kg/injection, schedule: Q07DX008 (ip), vehicle: saline): 60 % of control
- T/C (endpoint: mean tumor weight, dose: 400.0 mg/kg/injection, schedule: Q07DX008 (ip), vehicle: saline): 105 % of control
- T/C [1]: 52 % of control
- T/C [2]: 167 % of control
- T/C [3]: 79 % of control
- T/C [4]: 114 % of control
- T/C [5]: 82 % of control
- T/C [8]: 119 % of control

Structure (SMILES): O=NN(CCCl)C(=O)NCCO
- T/C (endpoint: median tumor weight change, dose: 4.0 mg/kg/injection, schedule: Q01DX001 (ip), vehicle: water): 92 % of control
- T/C (endpoint: median tumor weight change, dose: 8.0 mg/kg/injection, schedule: Q01DX001 (ip), vehicle: water): 86 % of control
- T/C (endpoint: median tumor weight change, dose: 16.0 mg/kg/injection, schedule: Q01DX001 (ip), vehicle: water): 58 % of control

Structure (SMILES): O=C1C2(Cl)C3(Cl)C4(Cl)C(Cl)(Cl)C5(Cl)[C@]3(Cl)C1(Cl)[C@]5(Cl)C24Cl (some centres not stated)
- T/C [6]: 71 % of control
- T/C (endpoint: median tumor weight (est.), dose: 25.0 mg/kg/injection, schedule: Q07DX005 (ip), vehicle: Klucel (hydroxypropylcellulose) (HPC)): 91 % of control
- T/C [7]: 67 % of control

Structure (SMILES): CCCCCCCCNc1cc2c3c(c1)CCCN3CCC2
- T/C (endpoint: median tumor weight (est.), dose: 0.75 mg/kg/injection, schedule: Q07DX005 (ip), vehicle: Klucel (hydroxypropylcellulose) (HPC)): 88 % of control
- T/C (endpoint: median tumor weight (est.), dose: 1.5 mg/kg/injection, schedule: Q07DX005 (ip), vehicle: Klucel (hydroxypropylcellulose) (HPC)): 87 % of control
- T/C (endpoint: median tumor weight (est.), dose: 3.0 mg/kg/injection, schedule: Q07DX005 (ip), vehicle: Klucel (hydroxypropylcellulose) (HPC)): 81 % of control
- T/C (endpoint: median tumor weight (est.), dose: 6.0 mg/kg/injection, schedule: Q07DX005 (ip), vehicle: Klucel (hydroxypropylcellulose) (HPC)): 103 % of control

Structure (SMILES): CCCCCCCCCCC(OC(C)=O)C1CCC(C2CCC(C(O)CCCCCCCCCCCCC3C=C(C)OC3=O)O2)O1 (configuration not stated)
- T/C (endpoint: median tumor weight change, dose: 1.25 mg/kg/injection, schedule: Q01DX001 (ip), vehicle: water): 111 % of control
- T/C (endpoint: median tumor weight change, dose: 10.0 mg/kg/injection, schedule: Q01DX001 (ip), vehicle: other): 76 % of control
- T/C (endpoint: median tumor weight change, dose: 10.0 mg/kg/injection, schedule: Q01DX001 (ip), vehicle: water): 164 % of control
- T/C (endpoint: median tumor weight change, dose: 20.0 mg/kg/injection, schedule: Q01DX001 (ip), vehicle: other): 41 % of control
- T/C (endpoint: median tumor weight change, dose: 40.0 mg/kg/injection, schedule: Q01DX001 (ip), vehicle: other): 38 % of control
- T/C (endpoint: median tumor weight change, dose: 80.0 mg/kg/injection, schedule: Q01DX001 (ip), vehicle: other): 38 % of control

Structure (SMILES): C[Si](C)(C)n1nnn(-c2ccccc2)c1=O
- T/C (endpoint: mean tumor weight, dose: 25.0 mg/kg/injection, schedule: Q07DX006 (ip), vehicle: saline with Tween-80): 100 % of control
- T/C (endpoint: mean tumor weight, dose: 50.0 mg/kg/injection, schedule: Q07DX006 (ip), vehicle: saline with Tween-80): 164 % of control
- T/C (endpoint: mean tumor weight, dose: 400.0 mg/kg/injection, schedule: Q07DX006 (ip), vehicle: saline with Tween-80): 102 % of control
- T/C [1]: 79 % of control
- T/C [2]: 65 % of control
- T/C [3]: 97 % of control
- T/C [5]: 77 % of control
- T/C [8]: 87 % of control

Structure (SMILES): CCOC(=O)c1ccc(NC(=O)Nc2nccs2)cc1
- T/C [1]: 150 % of control
- T/C [2]: 46 % of control
- T/C [3]: 60 % of control
- T/C [4]: 96 % of control
- T/C [5]: 49 % of control
- T/C [8]: 43 % of control
